{"source": "patent US11739252B2", "about": "“Microbecidal composition and a method for mitigating internal microbiological influenced corrosion in petroleum transporting pipelines” (Indian Oil Corporation Limited, priority 2020, dated 2023)", "tested_on": "MIC causing microbes", "assay": "Synergistic effect of components: antimicrobial screening against MIC causing microbes and their mediated corrosion", "type": "cell-based", "settings": "dosed at 10000 ppm", "procedure": "To test the MIC activity, the microbecidal composition was subjected to antimicrobial screening against MIC causing microbes and their mediated corrosion. 10 gram of muck sample from a pipeline having MIC was used as inoculum. The growth of the microbes was followed by visual observation as well as by counting the CFU/ml on respective media. The growth was compared with control i.e., without microbecidal composition. Further, individual components of the microbecidal composition were evaluated to evaluate the synergistic effect of the composition (Table 1). As observed from the Table-1 below, when the individual components of the microbecidal composition was used, no significant MIC reduction was observed.", "data": [{"smiles": "CCO", "note": "[Alcohol]", "values": [{"measurement": "Percentage (%) reduction in MIC", "setting": "base corrosion rate 12 mpy", "value": 10, "unit": "%"}, {"measurement": "After dosing of Microbecidal composition (mpy)", "setting": "base corrosion rate without composition 12 mpy, muck sample inoculum", "value": 10.75, "unit": "mpy"}]}]}
